Test results from patent US8912121B2, “Herbicidal compositions comprising 4-amino-3-chloro-5-fluoro-6-(4-chloro-2-fluoro-3-methoxyphenyl)pyridine-2-carboxylic acid or a derivative thereof and certain PS II inhibitors” (Dow Agrosciences LLC, priority 2012, dated 2014).

What was measured:
[1] = system: AMARE (Amaranthus retroflexus, redroot pigweed); experiment: Postemergence herbicidal activity of mixtures in cereal crops, greenhouse; assay type: in vivo, Amaranthus retroflexus L.
Procedure: (§1) Seeds of the desired test plant species were planted in Sun Gro MetroMix® 306 planting mixture, which typically has a pH of 6.0 to 6.8 and an organic matter content of about 30 percent, in plastic pots with a surface area of 103.2 square centimeters (cm^2). When required to ensure good germination and healthy plants, a fungicide treatment and/or other chemical or physical treatment was applied. The plants were grown for 7-36 days in a greenhouse with an approximate 14 hour photoperiod which was maintained at about 18° C. during the day and about 17° C. during the night. Nutrients and water were added on a regular basis and supplemental lighting was provided with overhead metal halide 1000-Watt lamps as necessary. The plants were employed for testing when they reached the second or third true leaf stage.
(§2) Treatments consisted of the benzyl ester of 4-amino-3-chloro-5-fluoro-6-(4-chloro-2-fluoro-3-methoxy-phenyl)pyridine-2-carboxylic acid (Compound A), formulated as an SC, a second cereal herbicide alone and then both in combination.
(§3) Other herbicidal components were applied on an active ingredient basis and included PSII-inhibiting herbicides.
(§4) Measured aliquots of benzyl ester of 4-amino-3-chloro-5-fluoro-6-(4-chloro-2-fluoro-3-methoxy-phenyl)pyridine-2-carboxylic acid (Compound A) were placed in 25 milliliter (mL) glass vials and diluted in a volume of 1.25% (v/v) Agri-Dex® crop oil concentrate to obtain stock solutions. Compound requirements are based upon a 12 mL application volume at a rate of 187 liters per hectare (L/ha). Spray solutions of the second cereal herbicide and experimental compound mixtures were prepared by adding the stock solutions to the appropriate amount of dilution solution to form 12 mL spray solution with active ingredients in two- and three-way combinations. Formulated compounds were applied to the plant material with an overhead Mandel track sprayer equipped with an 8002E nozzle calibrated to deliver 187 L/ha over an application area of 0.503 square meters (m^2) at a spray height of 18 inches (46 cm) above average plant canopy. Control plants were sprayed in the same manner with the solvent blank.
(§5) The treated plants and control plants were placed in a greenhouse as described above and watered by sub-irrigation to prevent wash-off of the test compounds. After 20-22 days, the condition of the test plants as compared with that of the control plants was determined visually and scored on a scale of 0 to 100 percent where 0 corresponds to no injury and 100 corresponds to complete kill.
(§6) Colby's equation was used to determine the herbicidal effects expected from the mixtures (Colby, S. R. 1967. Calculation of the synergistic and antagonistic response of herbicide combinations. Weeds 15:20-22). […]

[2] = system: VERPE (Veronica persica, Persian speedwell); experiment: as above; assay type: in vivo, Veronica persica Poir.
Procedure: as §1, §2, §3, §4, §5
(§7) Colby's equation was used to determine the herbicidal effects expected from the mixtures (Colby, S. R. 1967. Calculation of the synergistic and antagonistic response of herbicide combinations. Weeds 15:20-22).
(§8) The following equation was used to calculate the expected activity of mixtures containing two active ingredients, A and B: Expected=A+B−(A×B/100)

[3] = system: SINAR (Sinapis arvensis, wild mustard); experiment: as above; assay type: in vivo, Sinapis arvensis L.
Procedure: as §1, §2, §3, §4, §5, §7, §8

[4] = system: LAMPU (Lamium purpureum, purple deadnettle); experiment: as above; assay type: in vivo, Lamium purpureum L.
Procedure: as §1, §2, §3, §4, §5, §7, §8

[5] = system: GALAP (Galium aparine, catchweed bedstraw); experiment: as above; assay type: in vivo, Galium aparine L.
Procedure: as §1, §2, §3, §4, §5, §7, §8

[6] = system: SASKR (Salsola tragus, Russian thistle); experiment: as above; assay type: in vivo, Salsola tragus L.
Procedure: as §1, §2, §3, §4, §5, §7, §8

[7] = system: CHEAL (Chenopodium album, common lambsquarters); experiment: as above; assay type: in vivo, Chenopodium album L.
Procedure: as §1, §2, §3, §4, §5, §6

[8] = system: SETFA (Setaria faberi, giant foxtail); experiment: Pre-emergence soil-applied mixtures, greenhouse; assay type: in vivo, Setaria faberi Herrm.; details: 27 DAA
Text: (§9) Seeds or nutlets of the desired test plant species were planted in a soil matrix prepared by mixing a loam soil (32 percent silt, 23 percent clay, and 45 percent sand, with a pH of about 6.5 and an organic matter content of about 1.9 percent) and calcareous grit in an 80 to 20 ratio. The soil matrix was contained in plastic pots with a volume of 1 quart and a surface area of 83.6 square centimeters (cm^2).
(§10) Treatments consisted of the benzyl ester of 4-amino-3-chloro-5-fluoro-6-(4-chloro-2-fluoro-3-methoxy-phenyl)pyridine-2-carboxylic acid (compound A) formulated as an SC (suspension concentrate) and various herbicidal components alone and in combination. Forms of compound A were applied on an acid equivalent basis.
(§11) Other herbicidal components were applied on an acid equivalent or active ingredient basis and included the PSII-inhibiting herbicides, atrazine formulated as Atrazine® 90WDG, metribuzin formulated as Metribuzin 75DF, simazine formulated as Princep Caliber 90, tebuthiuron formulated as Spike 80DF, cyanazine (technical grade material), hexazinone (technical grade material), linuron (technical grade material), terbuthylazine (technical grade material), and diuron formulated as Diuron 4L.
(§12) Treatment requirements were calculated based upon the rates being tested, the concentration of active ingredient or acid equivalent in the formulation, and a 12 mL application volume at a rate of 187 L/ha.
(§13) For treatments comprised of formulated compounds, measured amounts of compounds were placed individually in 25 mL glass vials and diluted in a volume of 1.25% (v/v) Agri-Dex® crop oil concentrate (COC) to obtain 12× stock solutions. […] Application solutions were prepared by adding an appropriate amount of each stock solution (e.g., 1 mL) and diluted to the appropriate final concentrations with the addition of 10 mL of an aqueous mixture of 1.25% (v/v) COC so that the final spray solutions contained 1.25% (v/v) COC.
(§14) For treatments comprised of technical compounds, weighed amounts can be placed individually in 25 mL glass vials and dissolved in a volume of 97:3 (v/v) acetone/DMSO to obtain 12× stock solutions. […] Application solutions can be prepared by adding an appropriate amount of each stock solution (e.g., 1 mL) and diluted to the appropriate final concentrations with the addition of 10 mL of an aqueous mixture of 1.5% (v/v) COC so that the final spray solutions contain 1.25% (v/v) COC. When technical materials are used, the concentrated stock solutions can be added to the spray solutions so that the final acetone and DMSO concentrations of the application solutions are 16.2% and 0.5%, respectively.
(§15) For treatments comprised of formulated and technical compounds, weighed amounts of the technical materials can be placed individually in 25 mL glass vials and dissolved in a volume of 97:3 (v/v) acetone/DMSO to obtain 12× stock solutions, and measured amounts of the formulated compounds can be placed individually in 25 mL glass vials and diluted in a volume of 1.5% (v/v) COC or water to obtain 12× stock solutions. […] Application solutions can be prepared by adding an appropriate amount of each stock solution (e.g., 1 mL) and diluted to the appropriate final concentrations with the addition of an appropriate amount of an aqueous mixture of 1.5% (v/v) COC so that the final spray solutions contain 1.25% (v/v) COC. As required, additional water and/or 97:3 (v/v) acetone/DMSO can be added to individual application solutions so that the final acetone and DMSO concentrations of the application solutions being compared are 8.1% and 0.25%, respectively.
(§16) All stock solutions and applications solutions were visually inspected for compound compatibility prior to application. Spray solutions were applied to the soil with an overhead Mandel track sprayer equipped with a 8002E nozzles calibrated to deliver 187 L/ha over an application area of 0.503 m^2 at a spray height of 18 inches (46 cm) above average pot height. […]

[9] = system: KCHSC (Kochia scoparia, kochia); experiment: Postemergence herbicidal activity of mixtures in cereal crops, greenhouse; assay type: in vivo, Kochia scoparia (L.) Schrad.
Procedure: as §1, §2, §3, §4, §5, §7, §8

[10] = system: XANST (Xanthium strumarium, common cocklebur); experiment: Pre-emergence soil-applied mixtures, greenhouse; assay type: in vivo, Xanthium strumarium L.; details: 29 DAA
Text: as §9, §10, §11, §12, §13, §14, §15, §16

[11] = system: IPOHE (Ipomoea hederacea, ivyleaf morningglory); experiment: Pre-emergence soil-applied mixtures, greenhouse; assay type: in vivo, Ipomoea hederacea (L.) Jacq.
Text: as §9, §10, §11, §12, §13
For treatments comprised of technical compounds, weighed amounts can be placed individually in 25 mL glass vials and dissolved in a volume of 97:3 (v/v) acetone/DMSO to obtain 12× stock solutions. […]
For treatments comprised of formulated and technical compounds, weighed amounts of the technical materials can be placed individually in 25 mL glass vials and dissolved in a volume of 97:3 (v/v) acetone/DMSO to obtain 12× stock solutions, and measured amounts of the formulated compounds can be placed individually in 25 mL glass vials and diluted in a volume of 1.5% (v/v) COC or water to obtain 12× stock solutions. […]

CC(C)c1ccc(NC(=O)N(C)C)cc1 [Isoproturon, N,N-dimethyl-N′-[4-(1-methylethyl)phenyl]urea, reference compound]
Visual Weed Control (%) - 21 DAA AMARE Obs ([1]; Isoproturon 375 g ai/ha): 3%
Visual Weed Control (%) - 21 DAA AMARE Obs ([1]; Isoproturon 750 g ai/ha): 10%
Visual Weed Control (%) - 21 DAA VERPE Obs ([2]; Isoproturon 375 g ai/ha): 8%
Visual Weed Control (%) - 21 DAA VERPE Obs ([2]; Isoproturon 750 g ai/ha): 10%
Visual Weed Control (%) - 21 DAA VERPE Obs ([2]; Isoproturon 1500 g ai/ha): 13%
Visual Weed Control (%)-21 DAA SINAR Obs ([3]; Isoproturon 375 g ai/ha): 13%
Visual Weed Control (%)-21 DAA SINAR Obs ([3]; Isoproturon 750 g ai/ha): 40%
Visual Weed Control (%)-21 DAA LAMPU Obs ([4]; Isoproturon 375 g ai/ha): 3%
Visual Weed Control (%)-21 DAA LAMPU Obs ([4]; Isoproturon 750 g ai/ha): 3%
Visual Weed Control (%)-21 DAA LAMPU Obs ([4]; Isoproturon 1500 g ai/ha): 13%
Visual Weed Control (%) - 21 DAA GALAP Obs ([5]; Isoproturon 375 g ai/ha): 5%
Visual Weed Control (%) - 21 DAA GALAP Obs ([5]; Isoproturon 750 g ai/ha): 5%
Visual Weed Control (%) - 21 DAA GALAP Obs ([5]; Isoproturon 1500 g ai/ha): 27%

CSc1nnc(C(C)(C)C)c(=O)n1N [Metribuzin, 4-amino-6-(1,1-dimethylethyl)-3-(methylthio)-1,2,4-triazin-5(4H)-one, reference compound]
Visual Weed Control (%)-21 DAA SASKR Obs ([6]; Metribuzin 25 g ai/ha): 8%
Visual Weed Control (%)-21 DAA SASKR Obs ([6]; Metribuzin 50 g ai/ha): 8%
Visual Weed Control (%)-21 DAA SASKR Obs ([6]; Metribuzin 100 g ai/ha): 67%
Visual Weed Control (%)-21 DAA CHEAL Obs ([7]; Metribuzin 25 g ai/ha): 0%
Visual Weed Control (%)-21 DAA CHEAL Obs ([7]; Metribuzin 50 g ai/ha): 55%
Visual Weed Control (%) Obs ([8]; 210 g ai/ha): 43%
Visual Weed Control (%) Obs ([8]; 420 g ai/ha): 83%
Visual Weed Control (%)-21 DAA SINAR Obs ([3]; Metribuzin 25 g ai/ha): 8%
Visual Weed Control (%)-21 DAA SINAR Obs ([3]; Metribuzin 50 g ai/ha): 15%
Visual Weed Control (%)-21 DAA KCHSC Obs ([9]; Metribuzin 25 g ai/ha): 0%
Visual Weed Control (%)-21 DAA KCHSC Obs ([9]; Metribuzin 50 g ai/ha): 8%
Visual Weed Control (%)-21 DAA KCHSC Obs ([9]; Metribuzin 100 g ai/ha): 88%
Visual Weed Control (%)-21 DAA LAMPU Obs ([4]; Metribuzin 25 g ai/ha): 3%
Visual Weed Control (%)-21 DAA LAMPU Obs ([4]; Metribuzin 50 g ai/ha): 15%
Visual Weed Control (%)-21 DAA LAMPU Obs ([4]; Metribuzin 100 g ai/ha): 23%

CNC(=O)N(C)c1nnc(C(C)(C)C)s1 [Tebuthiuron, N-[5-(1,1-dimethylethyl)-1,3,4-thiadiazol-2-yl]-N,N′-dimethylurea, reference compound]
Visual Weed Control (%) - 29 DAA XANST Obs ([10]; Tebuthiuron 210 g ai/ha): 40%
Visual Weed Control (%) - 29 DAA XANST Obs ([10]; Tebuthiuron 3360 g ai/ha): 95%
Visual Weed Control (%) - 33 DAA IPOHE Obs ([11]; Tebuthiuron 420 g ai/ha): 87%
Visual Weed Control (%) - 33 DAA IPOHE Obs ([11]; Tebuthiuron 840 g ai/ha): 90%
